From PubChem BioAssay (NCI)
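Cells were grown in 96-well plates and exposed to each compound for 48 hours at five concentrations; endpoints were interpolated linearly between bracketing concentrations, or set to the highest concentration if not reached. GI50 is the concentration that inhibits growth by half. At the TGI there is no net growth.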

Legend:
Test in all cases: NCI anticancer screen, dose series, 48 h
SK-MEL-5 melanoma = system: SK-MEL-5 melanoma
U251 CNS = system: U251 CNS
CAKI-1 renal = system: CAKI-1 renal
SR leukemia = system: SR leukemia
SW-620 colon = system: SW-620 colon
KM20L2 colon = system: KM20L2 colon
NCI-H460 lung = system: NCI-H460 lung
SF-295 CNS = system: SF-295 CNS
MCF7 breast = system: MCF7 breast
M19-MEL melanoma = system: M19-MEL melanoma

| Compound | GI50 (SK-MEL-5 melanoma) [µM] | TGI (SK-MEL-5 melanoma) [µM] | GI50 (U251 CNS) [µM] | TGI (U251 CNS) [µM] | GI50 (CAKI-1 renal) [µM] | TGI (CAKI-1 renal) [µM] | GI50 (SR leukemia) [µM] | TGI (SR leukemia) [µM] | GI50 (SW-620 colon) [µM] | TGI (SW-620 colon) [µM] | GI50 (KM20L2 colon) [µM] | TGI (KM20L2 colon) [µM] | GI50 (NCI-H460 lung) [µM] | TGI (NCI-H460 lung) [µM] | GI50 (SF-295 CNS) [µM] | TGI (SF-295 CNS) [µM] | GI50 (MCF7 breast) [µM] | TGI (MCF7 breast) [µM] | TGI (M19-MEL melanoma) [µM] |
| --- | --- | --- | --- | --- | --- | --- | --- | --- | --- | --- | --- | --- | --- | --- | --- | --- | --- | --- | --- |
| CC(=O)[CH-]C(C)=O.CC(=O)[CH-]C(C)=O.[O-]c1ccccc1.[O-]c1ccccc1.[Ti+4] | > 100 | > 100 | > 100 | > 100 | > 100 | > 100 | > 100 | > 100 | > 100 | > 100 | > 100 | > 100 | > 100 | > 100 | > 100 | > 100 | – | – | – |
| O=S(=O)(NC1=NCCN1C(=S)SN1CCn2c1nsc2=S)c1ccc(Cl)cc1 | 8.99 | 21.7 | 10.9 | 24.4 | 6.49 | 27.7 | 2.4 | 6.51 | 4.42 | 17.9 | – | – | 10.2 | 38.6 | 16.7 | 34.8 | 2.78 | 17.1 | – |
| COC1=CC(c2ccc[nH]2)=N/C1=C\c1[nH]c(C)c(C(=O)CCCCCCCCC(=O)O[C@H]2CC[C@H]3C4CCc5cc(O)ccc5C4CC[C@]23C)c1C (stereo partly specified) | 0.139 | 0.456 | 0.331 | > 50 | 1.1 | > 28.4 | 0.209 | > 20.2 | 0.197 | > 50 | – | – | 0.536 | > 50 | 1.09 | > 43.8 | 0.37 | > 50 | – |
| O=c1c(-c2ccc3c(c2)OCO3)coc2c3c(ccc12)OCO3 | – | > 100 | – | > 100 | – | > 100 | – | > 100 | – | > 100 | – | – | – | 32.1 | – | 37.1 | – | 33.7 | – |
| O=c1[nH]c(C2CCCN2)nc2c1oc1ccc(Cl)cc12 (stereo unspecified) | 20.3 | > 85 | 36.2 | > 100 | > 100 | > 100 | 61.1 | > 100 | 49.4 | > 100 | – | – | > 100 | > 100 | > 72.3 | > 100 | 80.4 | > 100 | – |
| COc1cc(/C=N/NC(=O)c2cnn3c2NC(c2ccccc2)C3)ccc1OC1CCCC1 (stereo unspecified) | 0.59 | 4.77 | 0.92 | 5.91 | 0.556 | 5.01 | 0.252 | 3.78 | 0.468 | 2.38 | – | – | 0.389 | 1.56 | 0.367 | 1.66 | 0.373 | 4.07 | – |
| O=C1C(=O)c2c(nc3ccc(C(F)(F)F)cn23)-c2ccccc21 | 0.171 | 0.31 | 0.185 | 0.377 | 0.162 | 0.297 | 0.225 | > 100 | 0.192 | 0.397 | – | – | 0.466 | 1.08 | 0.436 | 0.855 | 0.168 | 0.4 | – |
| Cc1n[nH]c2ccccc2c1=O | – | > 100 | – | > 100 | – | > 100 | – | > 100 | – | > 100 | – | – | – | > 100 | – | > 100 | – | > 100 | – |
| O=C1NC(=NCCc2ccc(Cl)cc2)S/C1=C\c1ccc2ncccc2c1 | 15.8 | > 25 | 20.8 | > 25 | > 19.5 | > 25 | 6.92 | > 25 | 14.2 | > 25 | – | – | 17.8 | > 25 | 24.4 | > 25 | 10.2 | > 25 | – |
| COc1cc2c(cc1C)NC(=O)/C2=C/c1ccnc2ccccc12 | 7.89 | 31.3 | 9.92 | 35.9 | 16.2 | > 50 | 8.47 | > 50 | > 50 | > 50 | – | – | 15.3 | > 50 | 25.3 | > 50 | 8.72 | > 50 | – |
| CC(C)Cc1cnc(CC(C)C)c(=O)[nH]1 | – | > 100 | – | > 100 | – | > 100 | – | > 100 | – | > 100 | – | – | – | > 100 | – | > 100 | – | > 100 | – |
| N/N=C(/Cc1ccccc1)NNO | – | > 100 | – | – | – | > 100 | – | – | – | > 100 | – | > 100 | – | > 100 | – | > 100 | – | – | > 100 |
| O=C1CC23CCCCCCCCCCC2(C1)CC(=O)C3 (stereo unspecified) | – | 32.4 | – | 75.6 | – | – | – | 56.5 | – | > 100 | – | – | – | > 100 | – | > 100 | – | – | 48.4 |
